PubChem BioAssay (NCI)
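Grown in 96-well plates, cells were treated for 48 hours with each compound at five concentrations. Insufficient inhibition: endpoint recorded as highest concentration tested. Definition used: TGI = concentration required for complete inhibition of growth.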

Columns and labels:
Assay in all cases: NCI anticancer screen, dose series, 48 h
LXFL 529 NSCLC = test system: LXFL 529 NSCLC
XF 498 CNS = test system: XF 498 CNS
KM20L2 colon = test system: KM20L2 colon
RXF-631 renal = test system: RXF-631 renal

Measured: TGI

O=C(N/C(=C\c1ccccc1[N+](=O)[O-])c1nc2ccccc2[nH]1)c1ccccc1
> 100 µM: all assays above

O=c1[nH][nH]c(=O)[nH]1
> 100 µM: XF 498 CNS | KM20L2 colon
